{"source": "ChEMBL document CHEMBL3886921", "about": "“Substituted pyrazoles as N-type calcium channel blockers” (2016)", "molecular_target": "Voltage-gated calcium channel", "experiment": "Functional Drug Screening System (FDSS): Calcium mobilization responses to KCl depolarization were evaluated by measuring the intensity of calcium-mediated fluorescent signal in the presence of BD Calcium Assay Dye (BD Biosciences, Franklin Lakes, N.J., U.S.A.), utilizing a Functional Drug Screening System (FDSS) by Hamamatsu Corporation (Bridgewater, N.J. U.S.A.).Twenty-four hr prior to assay, cells were seeded in clear-base poly-D-lysine-coated 384-well plates (BD Biosciences) at a density of 5,000 cells per well in culture medium and grown overnight in 5% CO2 at 37° C. On the day of assay, growth media were removed, and cells were loaded with BD calcium assay dye (BD Biosciences) for 35 min at 37° C. under 5% CO2 and then for 25 min at room temp. Utilizing the FDSS, cells were exposed to representative compounds of Formula (I) at varying concentrations, and intracellular calcium was measured for 5 min prior to the addition of 50 mM KCl for an additional 3 min of measurement.", "type": "cell-based"}
{"molecule": "COc1ccccc1-n1nc(OC2CC(C)(C)C(=O)C(C)(C)C2)cc1-c1ccc(Cl)cc1", "values": [{"measurement": "IC50", "value": 9.7, "unit": "nM"}]}
